± gives the expanded uncertainty stated by the source.
Assay: xn = mol fraction of the nth substance listed
Conditions: 100 kPa, Liquid; for viscosity: Cone and plate viscometry; for mass density: Vibrating tube method

CCCCCCn1cc[n+](C)c1C.O=S(=O)([N-]S(=O)(=O)C(F)(F)F)C(F)(F)F + CCCCCCCCCCCCCC[P+](CCCCCC)(CCCCCC)CCCCCC.O=S(=O)([N-]S(=O)(=O)C(F)(F)F)C(F)(F)F
viscosity [mPa·s]
Conditions	278.15 K	283.15 K	288.15 K	293.15 K	298.15 K	303.15 K	308.15 K	313.15 K	318.15 K	323.15 K
x2 = 0.2	707 ± 92	483 ± 62	336 ± 42	242 ± 30	179 ± 22	136 ± 17	106 ± 13	84 ± 10	68 ± 8	55 ± 7
x2 = 0.4	932 ± 120	634 ± 82	442 ± 56	317 ± 40	234 ± 29	177 ± 22	137 ± 17	107 ± 13	86 ± 10	71 ± 9
x2 = 0.596	1000 ± 130	683 ± 89	477 ± 61	342 ± 43	252 ± 31	190 ± 23	146 ± 18	115 ± 14	92 ± 11	75 ± 9
x2 = 0.749	1015 ± 140	698 ± 91	490 ± 63	353 ± 45	261 ± 33	196 ± 24	151 ± 18	119 ± 14	95 ± 12	77 ± 9
x2 = 0.898	1130 ± 150	786 ± 100	555 ± 72	400 ± 51	297 ± 37	224 ± 28	173 ± 21	135 ± 16	108 ± 13	80 ± 10

CC[P+](CC)(CC)COCCOC.O=S(=O)([N-]S(=O)(=O)C(F)(F)F)C(F)(F)F + CCCCCCCCCC[P+](CC)(CC)CC.O=[N+]([O-])c1cn[n-]c1
x2 = 0
Conditions	viscosity [mPa·s]
278.15 K	84 ± 10
283.15 K	65 ± 8
288.15 K	51 ± 6

CCCCCC[n+]1ccn(C)c1.O=S(=O)([N-]S(=O)(=O)C(F)(F)F)C(F)(F)F + CCCCCCCC[P+](CC)(CC)CC.O=[N+]([O-])c1cn[n-]c1
x2 = 0
Conditions	mass density [kg/m3]
283.15 K	1385.6 ± 12
288.15 K	1381 ± 12
293.15 K	1376.5 ± 12
295.15 K	1374.6 ± 12
298.15 K	1371.9 ± 12
303.15 K	1367.3 ± 12
308.15 K	1362.8 ± 12
313.15 K	1358.3 ± 12
318.15 K	1353.7 ± 12
323.15 K	1349.2 ± 12
328.15 K	1344.7 ± 12
333.15 K	1340.3 ± 12
338.15 K	1335.8 ± 12
343.15 K	1331.4 ± 12
348.15 K	1326.9 ± 12
353.15 K	1322.5 ± 12

CCCCCCn1cc[n+](C)c1C.O=S(=O)([N-]S(=O)(=O)C(F)(F)F)C(F)(F)F + CCCCCCCC[P+](CC)(CC)CC.O=[N+]([O-])c1cn[n-]c1
x2 = 0
Conditions	mass density [kg/m3]
283.15 K	1373 ± 12
288.15 K	1368.4 ± 12
293.15 K	1363.9 ± 12
295.15 K	1362.1 ± 12
298.15 K	1359.5 ± 12
303.15 K	1355.1 ± 12
308.15 K	1350.8 ± 12
313.15 K	1346.4 ± 12
318.15 K	1342 ± 12
323.15 K	1337.6 ± 12
328.15 K	1333.2 ± 12
333.15 K	1328.9 ± 12
338.15 K	1324.5 ± 12
343.15 K	1320.2 ± 12
348.15 K	1315.8 ± 12
353.15 K	1311.5 ± 12

CC[P+](CC)(CC)COCCOC.O=S(=O)([N-]S(=O)(=O)C(F)(F)F)C(F)(F)F + CCCCCCC[P+](CC)(CC)CC.O=[N+]([O-])c1cn[n-]c1
x2 = 0
Conditions	viscosity [mPa·s]
278.15 K	84 ± 10
283.15 K	65 ± 8
288.15 K	51 ± 6

CCCCCCCCCCCCCC[P+](CCCCCC)(CCCCCC)CCCCCC.O=S(=O)([N-]S(=O)(=O)C(F)(F)F)C(F)(F)F + CCCCCC[n+]1ccn(C)c1.O=S(=O)([N-]S(=O)(=O)C(F)(F)F)C(F)(F)F
viscosity [mPa·s]
Conditions	278.15 K	283.15 K	288.15 K	293.15 K	298.15 K	303.15 K	308.15 K	313.15 K	318.15 K	323.15 K
x1 = 0.2	390 ± 49	280 ± 35	205 ± 25	153 ± 19	118 ± 14	92 ± 11	74 ± 9	60 ± 7	–	–
x1 = 0.398	652 ± 85	459 ± 59	329 ± 41	242 ± 30	183 ± 23	141 ± 17	111 ± 13	89 ± 11	72 ± 9	60 ± 7
x1 = 0.596	873 ± 120	611 ± 79	434 ± 55	316 ± 40	236 ± 29	180 ± 22	140 ± 17	111 ± 13	90 ± 11	73 ± 9
x1 = 0.748	1019 ± 140	706 ± 92	500 ± 64	362 ± 46	270 ± 34	204 ± 25	158 ± 19	124 ± 15	100 ± 12	81 ± 10
x1 = 0.903	1114 ± 150	774 ± 100	547 ± 70	396 ± 50	293 ± 37	221 ± 27	171 ± 21	134 ± 16	107 ± 13	86 ± 10

CCCC[n+]1cccn1C.O=S(=O)([N-]S(=O)(=O)C(F)(F)F)C(F)(F)F [1-butyl-2-methylpyrazolium bis(trifluoromethylsulfonyl)imide] + CCCCCCSC(N(C)C)=[N+](C)C.O=S(=O)([N-]S(=O)(=O)C(F)(F)F)C(F)(F)F
mass density [kg/m3]
Conditions	x2 = 0.251	x2 = 0.502	x2 = 0.748
283.15 K	1431.2 ± 12	1400.4 ± 12	1375.8 ± 12
288.15 K	1426.6 ± 12	1395.7 ± 12	1371.4 ± 12
293.15 K	1421.9 ± 12	1391.4 ± 12	1366.9 ± 12
295.15 K	1420.1 ± 12	1389.9 ± 12	1365.1 ± 12
298.15 K	1417.3 ± 12	1387.4 ± 12	1362.4 ± 12
303.15 K	1412.7 ± 12	1382 ± 12	1357.9 ± 12
308.15 K	1408.1 ± 12	1377.6 ± 12	1353.5 ± 12
313.15 K	1403.5 ± 12	1373.2 ± 12	1349 ± 12
318.15 K	1398.9 ± 12	1368.8 ± 12	1344.6 ± 12
323.15 K	1394.3 ± 12	1364.7 ± 12	1340.2 ± 12
328.15 K	1389.7 ± 12	1360.4 ± 12	1335.8 ± 12
333.15 K	1385.2 ± 12	1356 ± 12	1331.4 ± 12
338.15 K	1380.6 ± 12	1351.7 ± 12	1327 ± 12
343.15 K	1376.1 ± 12	1347.3 ± 12	1322.6 ± 12
348.15 K	1371.6 ± 12	1342.8 ± 12	1318.3 ± 12
353.15 K	1367.1 ± 12	1338.4 ± 12	1313.9 ± 12

CCCCCCn1cc[n+](C)c1C.O=[N+]([O-])c1cn[n-]c1 [1-hexyl-2,3-dimethylimidazolium 4-nitropyrazolide] + CCCCCCCC[P+](CC)(CC)CC.O=S(=O)([N-]S(=O)(=O)C(F)(F)F)C(F)(F)F
viscosity [mPa·s]
Conditions	278.15 K	283.15 K	288.15 K	293.15 K	298.15 K	303.15 K	308.15 K	313.15 K	318.15 K	323.15 K
x1 = 0.101	401 ± 51	284 ± 36	204 ± 25	151 ± 19	115 ± 14	90 ± 11	72 ± 9	57 ± 7	–	–
x1 = 0.299	620 ± 81	421 ± 54	293 ± 37	211 ± 26	156 ± 19	120 ± 15	93 ± 11	74 ± 9	60 ± 7	–
x1 = 0.499	992 ± 130	636 ± 83	423 ± 54	292 ± 37	209 ± 26	154 ± 19	118 ± 14	91 ± 11	72 ± 9	59 ± 7
x1 = 0.701	2252 ± 320	1345 ± 180	836 ± 110	543 ± 70	369 ± 47	259 ± 32	188 ± 23	140 ± 17	107 ± 13	84 ± 10
x1 = 0.899	6554 ± 990	3416 ± 500	1886 ± 260	1108 ± 150	689 ± 90	450 ± 58	307 ± 39	216 ± 27	157 ± 19	119 ± 15

CCCCCCn1cc[n+](C)c1.O=[N+]([O-])c1cn[n-]c1 [1-hexyl-3-methylimidazolium 4-nitropyrazolide] + CCCCCCCC[P+](CC)(CC)CC.O=S(=O)([N-]S(=O)(=O)C(F)(F)F)C(F)(F)F
viscosity [mPa·s]
Conditions	278.15 K	283.15 K	288.15 K	293.15 K	298.15 K	303.15 K	308.15 K	313.15 K	318.15 K	323.15 K
x1 = 0.1	402 ± 51	284 ± 36	205 ± 25	152 ± 19	116 ± 14	90 ± 11	72 ± 9	58 ± 7	–	–
x1 = 0.299	470 ± 60	325 ± 41	230 ± 29	168 ± 21	127 ± 16	98 ± 12	77 ± 9	62 ± 8	51 ± 6	–
x1 = 0.499	639 ± 83	428 ± 55	294 ± 37	209 ± 26	154 ± 19	116 ± 14	90 ± 11	71 ± 9	57 ± 7	–
x1 = 0.701	1045 ± 140	660 ± 86	432 ± 55	295 ± 37	209 ± 26	154 ± 19	116 ± 14	90 ± 11	71 ± 9	57 ± 7
x1 = 0.9	2181 ± 300	1262 ± 170	765 ± 100	488 ± 63	326 ± 41	227 ± 28	164 ± 20	122 ± 15	93 ± 11	74 ± 9

CCCCCCCCCC[P+](CC)(CC)CC.O=[N+]([O-])c1cn[n-]c1 [decyltriethylphosphonium 4-nitropyrazolide] + CC[P+](CC)(CC)COCCOC.O=S(=O)([N-]S(=O)(=O)C(F)(F)F)C(F)(F)F
viscosity [mPa·s]
Conditions	278.15 K	283.15 K	288.15 K	293.15 K	298.15 K	303.15 K	308.15 K	313.15 K	318.15 K	323.15 K
x1 = 0.1	103 ± 13	79 ± 10	62 ± 8	49 ± 6	–	–	–	–	–	–
x1 = 0.25	160 ± 20	120 ± 15	91 ± 11	72 ± 9	57 ± 7	–	–	–	–	–
x1 = 0.499	334 ± 42	239 ± 30	174 ± 21	131 ± 16	101 ± 12	79 ± 10	64 ± 8	52 ± 6	–	–
x1 = 0.75	716 ± 94	486 ± 62	337 ± 43	241 ± 30	178 ± 22	135 ± 16	104 ± 13	82 ± 10	66 ± 8	55 ± 7
x1 = 0.9	1198 ± 160	788 ± 100	531 ± 68	370 ± 47	265 ± 33	195 ± 24	149 ± 18	115 ± 14	91 ± 11	73 ± 9

CCCCCCC[P+](CC)(CC)CC.O=[N+]([O-])c1cn[n-]c1 [triethylheptylphosphonium 4-nitropyrazolide] + CC[P+](CC)(CC)COCCOC.O=S(=O)([N-]S(=O)(=O)C(F)(F)F)C(F)(F)F
viscosity [mPa·s]
Conditions	278.15 K	283.15 K	288.15 K	293.15 K	298.15 K	303.15 K	308.15 K	313.15 K	318.15 K	323.15 K
x1 = 0.101	103 ± 13	80 ± 10	62 ± 8	50 ± 6	–	–	–	–	–	–
x1 = 0.248	135 ± 17	101 ± 12	78 ± 9	61 ± 7	50 ± 6	–	–	–	–	–
x1 = 0.5	234 ± 29	170 ± 21	126 ± 15	96 ± 12	75 ± 9	59 ± 7	–	–	–	–
x1 = 0.75	474 ± 61	328 ± 41	231 ± 29	168 ± 21	126 ± 15	97 ± 12	76 ± 9	61 ± 7	50 ± 6	–
x1 = 0.901	761 ± 100	510 ± 66	350 ± 44	249 ± 31	182 ± 22	137 ± 17	105 ± 13	84 ± 10	66 ± 8	54 ± 7

From the NIST ThermoML archive (doi:10.1021/acs.jced.7b00221)
